Measurements from patent US6855804B2, “Covalently reactive transition state analogs and methods of use thereof” (Board of Regents, The University of Texas System, priority 1998, dated 2005).
Non-standard residues stand in square brackets, D forms with d. Residues, ends and D or L forms follow the SMILES beside them. *: point of attachment. Sta = CC(C)C[C@H](N)[C@@H](O)CC(=O)O; Isovaleryl = CC(C)CC(=O)*

Key:
Fv YZ17 [1] = format: biochemical, mouse
L chain GG63 = L chain GG63 (Homo sapiens, UniProt P01834); experiment: Inhibition of L chain GG63 catalysed PFR-MCA cleavage
L chain clone SK35 = format: binding
L chain clone c23.5 = format: binding
Fv YZ17 [2] = format: binding, mouse
[3] = target: trypsin (porcine, type IX) (Sus scrofa, UniProt P00761); experiment: biochemical; format: biochemical
L chain hk14 [4] = format: biochemical
L chain c23.5 [5] = format: binding
L chain hk14 [6] = format: binding
L chain c23.5 [7] = format: biochemical
L chain U16 [8] = format: biochemical, mouse
Fv mRT3 = format: biochemical
L chain U16 [9] = format: binding, mouse
[10] = test system: VIPase antibody fragments; format: biochemical
Thrombin (human, a) = Thrombin (human, a) (Homo sapiens, UniProt P00734); format: biochemical
trypsin = trypsin (Sus scrofa, UniProt P00761); format: binding, porcine
Sequence of trypsin (P00761 9-231): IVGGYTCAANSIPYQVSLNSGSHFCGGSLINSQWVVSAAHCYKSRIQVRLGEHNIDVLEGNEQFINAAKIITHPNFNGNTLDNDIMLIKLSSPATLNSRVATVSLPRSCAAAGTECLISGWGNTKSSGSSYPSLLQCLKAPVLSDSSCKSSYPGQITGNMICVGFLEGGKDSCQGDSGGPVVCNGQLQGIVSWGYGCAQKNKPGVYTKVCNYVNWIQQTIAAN

Sequence of trypsin (porcine, type IX) (P00761 9-231): as above

c1cnc2c(c1)ccc1cccnc12 [Phenanthroline, phenanthroline]
Inhibition, % Phenanthroline (Fv YZ17 [1]): 0.2%
inhibition at 10000 µM (L chain GG63; read-out: Inhibition, % Phenanthroline): 0.6%

NC(=O)CI [Iodoacetamide, iodoacetamide]
Inhibition, % Iodoacetamide (Fv YZ17 [1]): 4.4%
Inhibition, % Iodoacetamide (L chain GG63): 5.8%

N=C(N)c1ccc(C(NC(=O)CCCCCNC(=O)CCCC[C@@H]2SC[C@@H]3NC(=O)N[C@@H]32)P(=O)(O)Oc2ccccc2)cc1 (stereo partly shown) [Compound 4, Monophenyl N-[6-(biotinamido)hexanoyl]amino(4-amidinophenyl)methanephosphonate]
stable adduct formation with L chain SK35 (L chain clone SK35): adducts stable to denaturing treatments were observed
stable adduct formation with L chain c23.5 (L chain clone c23.5): failed to form stable 4-adduct
stable adduct formation with Fv YZ17 (Fv YZ17 [2]): adducts stable to denaturing treatments were observed

N=C(N)c1ccc(C(NC(=O)OCc2ccccc2)P(=O)(Oc2ccccc2)Oc2ccccc2)cc1 (stereo not shown) [Compound 1, Diphenyl N-(benzyloxycarbonyl)amino(4-amidinophenyl)methanephosphonate, reference compound]
k2, first-order rate constant for formation of covalent adduct [3]: 2.0 min⁻¹
kapp/[I] [3]: 3703 M⁻¹ s⁻¹
ΔG of noncovalent enzyme-inhibitor interactions (ΔG=−RTlnKi) [3]: 7.3 kcal/mol

phenylphosphonate 4-nitrophenyl [N-(6-biotinylhexanediamin-1-yl)carboxymethyl]tropan-3-ol diester [diester II]
inhibition of cleavage of PFR-MCA (L chain hk14 [4]): 71%
II labeling of monomer L chain, % of the Fv level (L chain c23.5 [5]): 18%
II labeling of monomer L chain, % of the Fv level (L chain hk14 [6]): 33%
inhibition of cleavage of PFR-MCA (L chain c23.5 [7]): 83%
inhibition of cleavage of PFR-MCA (L chain U16 [8]): 79%
inhibition of cleavage of PFR-MCA (Fv mRT3): 92%
II labeling of monomer L chain, % of the Fv level (L chain U16 [9]): 51%
irreversibility of peptidase inhibition after removal of free inhibitor by gel filtration [10]: did not restore the catalytic activity

CC(C)CC(=O)N[C@H](C(=O)N[C@H](C(=O)N[C@@H](CC(C)C)[C@@H](O)CC(=O)N[C@@H](C)C(=O)N[C@@H](CC(C)C)[C@@H](O)CC(=O)O)C(C)C)C(C)C [Pepstatin A, pepstatin A] (Isovaleryl-VV[Sta]A[Sta]-OH)
Inhibition, % Pepstatin A (Fv YZ17 [1]): 1.2 (2.9) %
Inhibition, % Pepstatin A (L chain GG63): 0.2 (1.3) %

N=C(N)c1ccc(C(NC(=O)CCSSCCC(=O)NCCNC(=O)CCCCC2SCC3NC(=O)NC32)P(=O)(O)Oc2ccccc2)cc1 (stereo not shown) [Compound 3, Monophenyl-N-[2-(biotinamido)ethylamido-3,3′-dithiodipropionyl]amino(4-amidinophenyl)methanephosphonate]
irreversible inhibition of thrombin activity (Thrombin (human, a)): inhibition of activity despite dilution
irreversible inhibition of YZ17 activity (Fv YZ17 [1]): inhibition of activity despite dilution
inhibition of trypsin activity after pretreatment and dilution [3]: 85%
inhibition of trypsin without pretreatment [3]: no inhibition
inhibition of trypsin-catalyzed EAR-MCA hydrolysis [3]: 9.9-80%
irreversibility of trypsin inhibition [3]: irreversible
k3, first-order rate constant for decomposition of Ei-I [3]: ~0
trypsin activity level following gel filtration [3]: 27.6±2.6 FU/h
trypsin activity level without removal of phosphonate [3]: 33.2±2.6 FU/h
trypsin activity of adduct isolated by gel filtration after incubation in buffer [3]: 50.2±7.0 FU/h
covalent labeling of trypsin (adducts after denaturing treatment) (trypsin): labeled

N=C(N)c1ccc(C(NC(=O)OCc2ccccc2)P(=O)(O)Oc2ccccc2)cc1 (stereo not shown) [Compound 2, Monophenyl N-(benzyloxycarbonyl)amino(4-amidinophenyl)methanephosphonate]
Ki [3]: 5.2 mM
kinact/KI ([3]; read-out: k2/Ki): 1.5 M⁻¹ s⁻¹

N=C(N)c1ccc(C(NC(=O)CCSSCCC(=O)NCCNC(=O)CCCCC2SCC3NC(=O)NC32)P(=O)(Oc2ccccc2)Oc2ccccc2)cc1 (stereo not shown) [Compound 5, Diphenyl-N-[2-(biotinamido)ethylamido-3,3′-dithiodipropionyl]amino(4-amidinophenyl)methanephosphonate]
kapp/[I] [3]: 0.23 M⁻¹ s⁻¹
trypsin activity level following gel filtration [3]: 5.0±0.1 FU/h
trypsin activity level without removal of phosphonate [3]: 6.5±0.2 FU/h
covalent labeling of trypsin (adducts after denaturing treatment) (trypsin): labeled
